Experiment [1] relates to panel of 114 cancer cell lines of colorectal, breast, lung, and blood (leukemia) origin. The experiment can be described thus: In vitro antiproliferative assay (cell number counting). The note with it: for Number of Cell Lines that Die Rapidly: within 2 doubling times. It is filed as cell-based. The protocol: In vitro anti-proliferative activity of Example 2 is determined by cell number counting assays against a panel of 114 cancer cell lines of colorectal, breast, lung, and blood (leukemia) origin obtained from ATCC, HSRRB, RIKEN or ECACC. The cells are cultured and maintained in media per supplier's instructions. Cell doubling time of each cell line is determined and all cell lines are free of mycoplasma contamination. Cells are cultured overnight in 96-well plates before compound addition for anti-proliferative activity assays. Optimal cell seeding density is carefully evaluated for each cell lines by seeding the cell culture with 4 different cell densities in 100 μL media and taking into consideration of their doubling time and cell sizes. The seeding density that gave about 90% confluence at end of two doubling times is then selected for compound testing. Staurosporine is used with 1:3 dilution as a reference. Example 2 is prepared as a 4 mM DMSO stock and diluted in culture media in a 1:2 ratio. 50 μL of the media containing the compound is added to each well of the overnight 96-well culture to produce the desired final concentrations of 20, 10, 5, 2.5, 1.25, 0.625, 0.312, 0.156, 0.078 μM and DMSO control. Each treatment concentration has duplicate wells. The cells are further cultured for two doubling times in the presence of the compound. At end of treatment time, cells are first examined under a microscope for morphological changes, such as cell death or apparent cell size increases. Cells in each duplicate well are collected separately. Adherent cells are harvested by tripsinization first. Harvested cells are re-suspended in growth media and are counted using a cell counter.

The target of a further experiment is T1, CDC7/DBF4 (Homo sapiens, UniProt O00311).
T1 construct: host or cells: insect cells
The experiment can be described thus: CDC7/DBF4 in vitro enzyme assay (Transcreener Kinase ADP-FP). It is filed as biochemical. The note with it: ATP 5 μM, MCM2 400 nM, 60 minutes, read-out: IC50 against CDC7/DBF4 kinase. The protocol:
The Transcreener™ Kinase ADP-FP assay is used to determine compound IC50 values against CDC7/DBF4 kinase. The Kinase ADP-FP assay assesses the activity of CDC7/DBF4 in the presence of compound inhibitors by measuring the concentration of ADP formed in a kinase reaction. The kinase reaction is performed using a 25 microliter reaction volume in 96 well assay plate. For the ADP-FP assay, the reagents are added to obtain the final reaction conditions of HEPES (25 mM) pH 7.5, 0.03% Triton® X-100, magnesium chloride (10 mM), DTT (1 mM), MCM2 (400 nM) (Amino Acid 1-209, a physiological substrate of CDC7/DBF4), spermine (4 mM), CDC7/DBF4 (2,640 ng/mL) (recombinant human CDC7/DBF4 expressed in insect cells), 4% dimethyl sulfoxide and serial dilutions of compound (diluted 1:3 from 20,000 nM to 1 nM). Enzyme and substrate is added to compound followed by ATP to 5 μM to start the reaction. The plates are incubated at room temperature for 60 minutes.
For the ADP-FP format add 25 microliters of a quench detection reagent containing HEPES (52 mM) pH 7.5, EDTA (20 mM), sodium chloride (0.4 M), polyoxyethyleneglycol dodecyl ether (0.02%) (BRIJ-35™), anti-ADP antibody (10 μg/mL), and ADP (4 nM) Transcreener® ADP Alexa Fluor® 633 tracer to quench the reaction. The plates are incubated for 1 hour, and then read in a Wallac EnVision™ 2104 Multilabel Reader (PerkinElmer) in Fluorescence Polarization mode using polarizing filters of Ex620nm and Em688nm wavelength. Millipolarization (mP) raw data is converted to micromolar ADP using a prepared ADP/ATP standard curve starting at 5 μM ADP 1:1 serial dilution in reaction buffer to 0.0025 μM ADP. The IC50 value for each compound is derived using percent inhibition data calculated from the μM ADP reaction data relative to on-plate controls (DMSO versus 100 mM EDTA inhibited enzyme controls). The percent inhibition and ten-point compound concentration data is then fitted to a four-parameter logistic equation.

For experiment [2], the system named is phosphorylated MCM2 at Serine 53 (pMCM2-S53) in H1299 cells. Kind of experiment: Acumen imaging assay for detection of phosphorylated MCM2 in H1299 cells. The experiment is classed as cell-based. The note with it: 4 hours treatment, read-out: IC50, inhibition of pMCM2-S53. The method, then:
The Acumen® eX3 is used to determine the effect of compounds on the formation of endogenous phosphorylated MCM2 at Serine 53 (pMCM2-S53). Phosphorylation of MCM2 by CDC7 is determined using specific anti-pMCM2-S53 antibody and quantified with fluorescent tagged secondary antibodies by Acumen® eX3 to monitor CDC7 activity in cells. Phosphorylation of MCM2 at Serine 53 is known to be correlated to CDC7 inhibition.
H1299 cells (ATCC #CRL-5803) are maintained in RPMI-1640 (Hyclone SH30809.01) growth medium supplemented with 10% FBS. Cells are harvested using standard cell culture procedures and then counted using Vi-Cell XR Cell Viability Analyzer (Beckman Counter). 3000-6000 H1299 cells in 100 μL of growth medium are plated into each well of Biocoat Poly-D-Lysine 96-well black/clear plate with flat bottom BioCoat™ Multiwell (Becton Dickinson) cell culture plates 356640 and incubated overnight at 37° C., 5% CO2.
Cells are treated with the test compound (50 μL/well) diluted in medium containing 0.6% DMSO and incubated for 4 hours at 37° C. To each well is added 7.4% formaldehyde (150 μL) diluted with PBS from 37% formaldehyde stock and the plates are incubated at room temperature for 30 minutes. Formaldehyde is removed and cold methanol (100 μL) is added. The plates are incubated for 20 minutes at 4° C. to permeabilize the cells. Plates are washed 3× with 100 μL/well of PBS. […] The plates are sealed with black seal and are read on the Acumen® eX3 (TTP LABTECH) using optical filter 500-530 nanometer and 575-640 nanometer for Alexa Fluor 488 and propidium iodide, respectively. The number of pMCM2-S53 positive cells is normalized to total cells for each well and are calculated as percent inhibition relative to on-plate controls. […]

Experiment [3] relates to pMCM2-S40/41 in Colo-205 xenograft tumors. The experiment can be described thus: CDC7 in vivo target inhibition (IVTI) on pMCM2-S40/41 with Colo-205 xenograft tumor model. Details: species or system mice. The following applies: 4 hours following an oral dose. The protocol: Human colo-205 colorectal cancer cells (ATCC#CCL-222) are maintained in RPMI 1640 medium containing 10% FBS. Log phase growing cells are harvested, washed, and resuspended in a 1:1 mixture of serum free medium and Matrigel™ (Becton Dickinson). They are injected subcutaneously at 5×10^6 cells/animal/site in the rear flank as subcutaneous tumor xenograft models in balb/c (nu/nu) female mice (6-8 weeks with body weight of 20 to 25 gram/mouse). Animals are randomized at the mean tumor volume of 150 to 250 mm^3 mice, (v=1×w×0.536 where 1=larger of measured diameter and w=smaller of perpendicular diameter). Compound is administered by P.O. in a standard 1% HEC w/v, P80 0.25% v/v, Antifoam 1510-US 0.05% v/v formulation. […] Protein concentration from tumor lysates is determined by BCA assay (Thermo Scientific) and 5 to 10 μg of protein is separated by standard SDS-PAGE (BioRad Criterion™ gel) or (Invitrogen ePage™ gel). […] Levels of pMCM2-S40/41 are determined and quantified by either Licor or FUJI imagers and normalized to the total GAPDH level. The percent change inhibition of pMCM2-S40/41 band intensity is calculated using the average intensity of vehicle treated control tumors normalized to the GAPDH as the maximum signal. […]

pIC50: −log10 of the molar value. Like-named read-outs stand apart in the source and are kept apart here. Where only a bound is given, the exact number is not on record here.

T1 sequence (O00311 whole entry): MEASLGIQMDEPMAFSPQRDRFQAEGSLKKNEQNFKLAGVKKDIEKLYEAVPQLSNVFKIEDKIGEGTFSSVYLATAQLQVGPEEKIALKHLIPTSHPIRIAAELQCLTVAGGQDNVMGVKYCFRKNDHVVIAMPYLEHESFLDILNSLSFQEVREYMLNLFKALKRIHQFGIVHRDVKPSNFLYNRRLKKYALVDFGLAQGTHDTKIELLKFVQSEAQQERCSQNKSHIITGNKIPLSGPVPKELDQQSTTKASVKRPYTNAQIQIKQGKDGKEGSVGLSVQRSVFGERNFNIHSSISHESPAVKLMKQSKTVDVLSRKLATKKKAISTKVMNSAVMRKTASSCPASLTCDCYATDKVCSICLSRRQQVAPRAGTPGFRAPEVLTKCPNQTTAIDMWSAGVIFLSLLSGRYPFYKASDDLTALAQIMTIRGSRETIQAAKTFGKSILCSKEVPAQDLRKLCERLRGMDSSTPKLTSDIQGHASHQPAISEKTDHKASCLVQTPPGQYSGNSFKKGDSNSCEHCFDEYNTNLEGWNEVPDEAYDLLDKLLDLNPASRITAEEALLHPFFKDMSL
T1 sequence (Q9UBU7 whole entry partner): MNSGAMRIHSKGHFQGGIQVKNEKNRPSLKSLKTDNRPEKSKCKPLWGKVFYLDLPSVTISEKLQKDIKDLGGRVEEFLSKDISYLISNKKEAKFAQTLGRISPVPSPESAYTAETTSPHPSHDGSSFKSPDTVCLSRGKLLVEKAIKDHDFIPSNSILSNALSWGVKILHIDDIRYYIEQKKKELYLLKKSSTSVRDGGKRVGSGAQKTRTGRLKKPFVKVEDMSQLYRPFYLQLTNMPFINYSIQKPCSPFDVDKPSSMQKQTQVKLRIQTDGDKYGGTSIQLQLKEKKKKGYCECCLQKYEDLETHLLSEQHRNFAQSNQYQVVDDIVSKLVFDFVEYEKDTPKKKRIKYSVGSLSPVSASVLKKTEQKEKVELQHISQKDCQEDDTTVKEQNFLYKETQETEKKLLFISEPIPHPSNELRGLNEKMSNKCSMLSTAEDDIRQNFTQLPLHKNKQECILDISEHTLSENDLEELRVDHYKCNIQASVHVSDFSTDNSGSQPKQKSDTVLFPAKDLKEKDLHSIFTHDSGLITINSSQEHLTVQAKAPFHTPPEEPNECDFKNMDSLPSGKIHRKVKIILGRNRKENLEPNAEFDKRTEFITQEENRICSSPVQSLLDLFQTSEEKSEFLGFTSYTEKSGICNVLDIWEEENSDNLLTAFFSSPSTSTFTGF

Regarding `CC1(c2ncncc2F)NC(=O)c2cc(-c3cn[nH]c3)ccc21` (single isomer, unassigned; isomer 2) [Example 2, 3-(5-Fluoropyrimidin-4-yl)-3-methyl-6-(1H-pyrazol-4-yl)isoindolin-1-one, Isomer 2], the “Number of Cell Lines that Die Rapidly” value in experiment [1] (Breast, of 17 cell lines) is 0; in experiment [1] (Colorectal, of 29 cell lines), 4; in experiment [1] (Leukemia, of 23 cell lines), 5; in experiment [1] (Lung, of 39 cell lines), 2; in experiment [1] (Others, of 6 cell lines) it was 1; in experiment [1] (Total, of 114 cell lines), 12. For the same compound, the pIC50 in experiment [1] (majority of the 114 cancer cell lines tested, read-out: anti-proliferative activity, pharmacologically relevant concentrations) is above 5.10; on CDC7/DBF4, 8.43; in experiment [2] (Homo sapiens, NCI-H1299, 4 h), 6.58. Moreover, the “cancer cell lines showing particular sensitivity (massive cell death)” value in experiment [1] (share of the 114 cell lines, within 2 doubling time treatment periods) is given as “about 10%”.

As for `CC1(c2ncncc2F)NC(=O)c2cc(-c3cn[nH]c3)ccc21` (single isomer, unassigned) [Example 3, 3-(5-Fluoropyrimidin-4-yl)-3-methyl-6-(1H-pyrazol-4-yl)isoindolin-1-one], in experiment [3], the “TEC70 (plasma concentration for 70% inhibition of pMCM2 normalized to GAPDH)” value amounted to 1.8 μM and the “TED70 (dose for 70% inhibition of pMCM2 normalized to GAPDH)” value is listed as 2.6 mg/kg. Besides, the pIC50 at CDC7/DBF4 was 8.35. Moreover, the pIC50 in experiment [2] was 6.54.
